From patent US7083511B1, “Methods” (The University of Dundee, priority 1998, dated 2006)
Starred links: 1 amine or outer side, 2 acyl side, 3 side chain; linkers in the order of their positions; H or OH if unused. Positions of bridges follow the written chain, without caps; N, C: chain ends. Non-standard residues stand in square brackets, D forms with d. Residues, ends and D or L forms follow the SMILES beside them. Adda = CO[C@@H](Cc1ccccc1)[C@@H](C)/C=C(C)/C=C/[C@H](N[*:1])[C@H](C)C(=O)[*:2]; dAsp(3S-Me) = C[C@H](C(=O)[*:3])[C@@H](N[*:1])C(=O)[*:2]; d(γGlu) = O=C(O)[C@@H](CCC(=O)[*:2])N[*:1]; NMeDha = C=C(NC)C(=O)O

Tests used:
SGK2α = experiment: Activation of GST-SGK2α in transfected 293 cells (Example 5); assay type: cell-based, human
Method: (§1) Cells were transiently transfected with DNA constructs expressing (A) GST-SGK1, (B), GST-SGK2α and (C) GST-SGK3. At 24 h after transfection, the cells were deprived of serum for 16 h, then exposed to 50 ng/ml IGF-1 (10 min), 400 ng/ml phorbol myristate acetate (PMA) (30 min), 10% serum (30 min), 1 μM dexamethasone (Dex, 60 min), 2 mM H2O2 (25 min), 5 μg/ml anisomycin (AN, 30 min), 0.4 M sorbitol (30 min), hypotonic stress (1 ml of water added to 3 ml of DMEM, 30 min), UV radiation (30 min after exposure to 200 J/m2) or left untreated (control). After each treatment, the cells were lysed in ice-cold lysis buffer and SGK activity in 100 μg of cell lysate protein was measured.
(§2) FIG. 20. […] Cells were transiently transfected with DNA constructs expressing (A) GST-SGK1, (B) GST-SGK2α and (C) GST-SGK3. At 24 h after transfection, the cells were deprived of serum for 16 h. The transfectants were then pretreated for 10 min with 100 nM wortmannin or for 1 h with 100 μM LY294002 and then stimulated for 25 min with 2 mM H2O2.
(§3) Expression of SGK isoforms in 293 cells. […] After each treatment, the cells were lysed and the activity of SGK isoforms was measured after affinity purification of the GST-fusion proteins on glutathione Sepharose, as described previously for SGK1 [18].

SGK3 [1] = experiment: Activation of GST-SGK3 in transfected 293 cells (Example 5); assay type: cell-based, human
Method: as §1, §2, §3

SGK1 = experiment: Activation of GST-SGK1 in transfected 293 cells (Example 5); assay type: cell-based, human
Method: as §1, §2, §3

[2] = tested on: protein phosphatase 2A (PP2A); assay type: biochemical
SGK3 [3] = molecular target: T1, SGK3 (Homo sapiens, UniProt Q96BR1); experiment: Activation of SGK3 by PDK1 in vitro; assay type: biochemical; conditions: 10 μM in PS/PC lipid vesicles
T1 construct: made in house; host or cells: 293 cells
T1 sequence (Q96BR1 68-496 limits assumed): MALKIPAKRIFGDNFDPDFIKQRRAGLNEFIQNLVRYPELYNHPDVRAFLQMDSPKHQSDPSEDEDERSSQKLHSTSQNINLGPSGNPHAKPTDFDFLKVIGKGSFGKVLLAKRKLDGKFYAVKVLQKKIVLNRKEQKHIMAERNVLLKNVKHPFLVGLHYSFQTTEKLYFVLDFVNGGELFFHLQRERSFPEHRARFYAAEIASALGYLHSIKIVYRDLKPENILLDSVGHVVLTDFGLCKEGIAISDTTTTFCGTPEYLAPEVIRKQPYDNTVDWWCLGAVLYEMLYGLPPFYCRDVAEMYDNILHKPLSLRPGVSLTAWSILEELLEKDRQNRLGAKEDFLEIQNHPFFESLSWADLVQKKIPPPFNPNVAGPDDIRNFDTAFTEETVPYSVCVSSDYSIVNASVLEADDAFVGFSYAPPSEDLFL
Method: (§4) Each GST-SGK isoform (0.4 μg) was incubated for 20 min at 30° C. with protein phosphatase 2A (PP2A, 30 mU/ml) in a 10 μl incubation containing 20 mM Tris/HCl, pH 7.5, 0.1% (v/v) 2-mercaptoethanol, 0.1 mM EGTA and 1 mg/ml bovine serum albumin. After addition of microcystin-LR to 1 μM to inactivate PP2A, SGK (0.4 μg) was phosphorylated for 30 min at 30° C. in a mixture (20 μl) containing 50 mM Tris/HCl, pH 7.5, 10 mM MgCl2, 0.1% (v/v) 2-mercaptoethanol, 0.1 mM EGTA, GST-PDK1 (0.03–300 ng) diluted in Buffer C and 100 μM unlabelled ATP. SGK assays were initiated by the addition of 30 μl of a mixture containing 50 mM Tris/HCl, pH 7.5, 10 mM MgCl2, 0.1% (v/v) 2-mercaptoethanol, 0.1 mM EGTA, 100 μM [γ-^32P] ATP (500 c.p.m/pmol), 50 μM of the peptide substrate Crosstide ([…]) (SEQ. ID. NO:30) and 4.2 μM of residues 5–24 of the specific protein inhibitor of adenosine 3′5′ cyclic monophosphate-dependent protein kinase. After 10 min at 30° C., the reactions were terminated by spotting aliquots on to P81 phosphocellulose paper, followed by immediate immersion in 75 mM phosphoric acid. The papers were washed, dried and analysed. One unit (U) of SGK was that amount which phosphorylated 1 nmole of Crosstide in one min.

SGK = molecular target: T2, SGK (Homo sapiens, UniProt O00141); experiment: Phosphorylation and activation of SGK by PDK1 in vitro; assay type: biochemical; conditions: 1 μM PtdIns(3,4,5)P3, with or without PS/PC lipid vesicles
T2 construct: PEBG-SGK expressing full length SGK; made in house; host or cells: 293 cells
T2 sequence (O00141 whole entry, looked up): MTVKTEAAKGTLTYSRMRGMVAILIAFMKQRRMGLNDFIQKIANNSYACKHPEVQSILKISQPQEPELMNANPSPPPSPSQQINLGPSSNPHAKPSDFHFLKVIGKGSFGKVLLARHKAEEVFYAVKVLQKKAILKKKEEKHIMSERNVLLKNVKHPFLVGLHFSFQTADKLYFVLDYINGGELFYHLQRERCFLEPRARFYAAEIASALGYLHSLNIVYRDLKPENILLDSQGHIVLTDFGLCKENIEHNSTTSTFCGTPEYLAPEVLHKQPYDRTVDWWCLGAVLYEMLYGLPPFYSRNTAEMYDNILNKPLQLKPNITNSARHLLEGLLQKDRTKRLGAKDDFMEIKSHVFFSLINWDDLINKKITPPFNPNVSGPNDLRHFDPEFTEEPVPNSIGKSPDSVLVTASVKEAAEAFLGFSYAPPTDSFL
Method: (A) GST-SGK (0.3 μg) was phosphorylated using GST-PDK1 (0.1 μg) and [γ-^32P] ATP (500 cpm/pmol) as described under Methods. Where indicated (+), 1 μM PtdIns(3,4,5)P3 in lipid vesicles containing phosphatidylserine (100 μM) and phosphatidylcholine (100 μM) (PS/PC) were also included. The reactions were stopped by the addition of SDS to 2% and, after heating for 5 min at 95° C., the samples were subjected to electrophoresis on 10% SDS/polyacrylamide gels, stained with Coomasssie blue and then autoradiographed. The positions of the molecular mass markers are also indicated (B) Same as (A), except that unlabelled ATP was used instead of [γ-^32P] ATP. After incubation for 10 min at 30° C., 10 μl aliquots were assayed for SGK activity using Crosstide as substrate. The results are shown ±SD for three separate experiments.
Phosphorylation and assay of SGK. Phosphorylation was carried out at 30° C. in 50 μl incubations containing 50 mM Tris/HCl pH 7.5, 0.1 mM EGTA, 0.1% (v/v) 2-mercaptoethanol, 2.5 μM PKI, 1 μM microcystin-LR, 10 mM magnesium chloride and 100 μM ATP. Where indicated lipid vesicles containing phosphatidylcholine (100 μM), phosphatidyl serine (100 μM) and PtdIns(3,4,5)P3 (1 μM) were also included. SGK activity was assayed exactly as described for PKB [6] using the peptide […] (SEQ. ID. NO:30) (“Crosstide”) at 30 μM as substrate. […]

SGK2 = molecular target: T3, SGK2 (Homo sapiens, UniProt Q9HBY8); experiment: Activation of SGK2 by PDK1 in vitro; assay type: biochemical; conditions: 10 μM in PS/PC lipid vesicles
T3 construct: pEBG-SGK2α expressing full length of SGK2α; made in house; host or cells: 293 cells
T3 sequence (Q9HBY8 1-367): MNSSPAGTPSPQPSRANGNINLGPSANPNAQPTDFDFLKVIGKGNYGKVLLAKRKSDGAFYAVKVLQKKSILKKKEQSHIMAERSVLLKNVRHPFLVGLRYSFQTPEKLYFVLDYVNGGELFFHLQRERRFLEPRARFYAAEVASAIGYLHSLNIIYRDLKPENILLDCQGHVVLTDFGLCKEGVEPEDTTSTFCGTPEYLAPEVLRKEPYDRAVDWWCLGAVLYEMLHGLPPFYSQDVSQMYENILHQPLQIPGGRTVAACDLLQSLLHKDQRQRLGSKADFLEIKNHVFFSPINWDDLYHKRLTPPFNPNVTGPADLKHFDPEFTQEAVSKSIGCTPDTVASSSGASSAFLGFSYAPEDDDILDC
Method: as §4

[4] = IGF-1 50 ng/ml 10 min, H2O2 2 mM 25 min
[5] = 10% serum 30 min, 0.4 M sorbitol 30 min

## OO [hydrogen peroxide]
SGK2α; [4]
  Activation of SGK2α by the stimulus: 5 fold
SGK3 [1]; [4]
  Activation of SGK3 by the stimulus: 5 fold
SGK1; [4]
  Activation of SGK1 by the stimulus: five fold

## C=C1C(=O)N[C@H](C)C(=O)N[C@@H](CC(C)C)C(=O)N[C@@H](C(=O)O)[C@H](C)C(=O)N[C@@H](CCCNC(=N)N)C(=O)N[C@@H](/C=C/C(C)=C/[C@H](C)[C@H](Cc2ccccc2)OC)[C@H](C)C(=O)N[C@@H](C(=O)O)CCC(=O)N1C [microcystin, microcystin-LR] (R[Adda][d(γGlu)][NMeDha][dA]L[dAsp(3S-Me)]-OH; lactam N-7)
[2]
  Effect on inactivation of GST-SGK by PP2A: prevented

## OC[C@@H](O)[C@@H](O)[C@H](O)[C@@H](O)CO [sorbitol]
SGK2α; [5]
  Effect of the stimulus on SGK2α activity (in words): had no effect
SGK3 [1]; [5]
  Effect of the stimulus on SGK3 activity (in words): had no effect
SGK1; [5]
  Effect of the stimulus on SGK1 activity (in words): potently inhibited

## PtdIns(3,4,5)P3
SGK3 [3]
  Effect on activation of SGK3 by PDK1: slightly inhibited
SGK
  Effect on phosphorylation and activation of SGK by PDK1: unaffected
SGK2
  Effect on activation of SGK2 by PDK1: slightly inhibited
